# Assay results: ChEMBL document CHEMBL3046897, “Synthesis of 3-{4-[4-dimethylamino-6-(4-methyl-2-oxo-2H-chromen-7-yloxy)-[1,3,5]triazin-2-ylamino]-phenyl}-2-phenyl-5-(4-pyridin-2-yl-piperazin-1-ylmethyl)-thiazolidin-4-one and their biological evaluation” (2012)
# Legend:
# Format in all cases: functional
# Shigella flexneri [1] = assay: Antibacterial activity against Shigella flexneri after 24 hr by agar streak dilution method
# Proteus vulgaris [2] = assay: Antibacterial activity against Proteus vulgaris after 24 hr by agar streak dilution method
# Salmonella typhi [3] = assay: Antibacterial activity against Salmonella enterica subsp. enterica serovar Typhi after 24 hr by agar streak dilution method
# Klebsiella pneumoniae [4] = assay: Antibacterial activity against Klebsiella pneumoniae after 24 hr by agar streak dilution method
# Candida albicans [5] = assay: Antifungal activity against Candida albicans at 100 ug/disk after 48 hr by paper disk diffusion method; conditions: read-out: IZ
# Aspergillus clavatus [6] = assay: Antifungal activity against Aspergillus clavatus at 100 ug/disc after 48 hr by paper disk diffusion method; conditions: read-out: IZ
# Aspergillus fumigatus [7] = assay: Antifungal activity against Aspergillus fumigatus at 100 ug/disc after 48 hr by paper disk diffusion method; conditions: read-out: IZ
# Aspergillus niger [8] = assay: Antifungal activity against Aspergillus niger at 100 ug/disk after 48 hr by paper disk diffusion method; conditions: read-out: IZ
# Candida albicans [9] = assay: Antifungal activity against Candida albicans after 48 hr by agar streak dilution method
# Aspergillus clavatus [10] = assay: Antifungal activity against Aspergillus clavatus after 48 hr by agar streak dilution method
# Aspergillus niger [11] = assay: Antifungal activity against Aspergillus niger after 48 hr by agar streak dilution method
# Pseudomonas aeruginosa [12] = assay: Antibacterial activity against Pseudomonas aeruginosa after 24 hr by agar streak dilution method
# Escherichia coli [13] = assay: Antibacterial activity against Escherichia coli after 24 hr by agar streak dilution method
# Shigella flexneri [14] = assay: Antibacterial activity against Shigella flexneri at 100 ug/disc after 24 hr by paper disk diffusion method; conditions: read-out: IZ
# Proteus vulgaris [15] = assay: Antibacterial activity against Proteus vulgaris at 100 ug/disk after 24 hr by paper disk diffusion method; conditions: read-out: IZ
# Salmonella typhi [16] = assay: Antibacterial activity against Salmonella enterica subsp. enterica serovar Typhi at 100 ug/disk after 24 hr by paper disk diffusion method; conditions: read-out: IZ
# Klebsiella pneumoniae [17] = assay: Antibacterial activity against Klebsiella pneumoniae at 100 ug/disk after 24 hr by paper disk diffusion method; conditions: read-out: IZ
# Pseudomonas aeruginosa [18] = assay: Antibacterial activity against Pseudomonas aeruginosa at 100 ug/disk after 24 hr by paper disk diffusion method; conditions: read-out: IZ
# Escherichia coli [19] = assay: Antibacterial activity against Escherichia coli at 100 ug/disk after 24 hr by paper disk diffusion method; conditions: read-out: IZ
# Bacillus subtilis [20] = assay: Antibacterial activity against Bacillus subtilis after 24 hr by agar streak dilution method
# Staphylococcus aureus [21] = assay: Antibacterial activity against Staphylococcus aureus after 24 hr by agar streak dilution method
# Bacillus subtilis [22] = assay: Antibacterial activity against Bacillus subtilis at 100 ug/disk after 24 hr by paper disk diffusion method; conditions: read-out: IZ
# Staphylococcus aureus [23] = assay: Antibacterial activity against Staphylococcus aureus at 100 ug/disc after 24 hr by paper disk diffusion method; conditions: read-out: IZ
# Aspergillus fumigatus [24] = assay: Antifungal activity against Aspergillus fumigatus after 48 hr by agar streak dilution method
SMILES,MIC (Shigella flexneri [1]) [µg/mL],MIC (Proteus vulgaris [2]) [µg/mL],MIC (Salmonella typhi [3]) [µg/mL],MIC (Klebsiella pneumoniae [4]) [µg/mL],zone of inhibition at 100 µg/disc (Candida albicans [5]) [mm],zone of inhibition at 100 µg/disc (Aspergillus clavatus [6]) [mm],zone of inhibition at 100 µg/disc (Aspergillus fumigatus [7]) [mm],zone of inhibition at 100 µg/disc (Aspergillus niger [8]) [mm],MIC (Candida albicans [9]) [µg/mL],MIC (Aspergillus clavatus [10]) [µg/mL],MIC (Aspergillus niger [11]) [µg/mL],MIC (Pseudomonas aeruginosa [12]) [µg/mL],MIC (Escherichia coli [13]) [µg/mL],zone of inhibition at 100 µg/disc (Shigella flexneri [14]) [mm],zone of inhibition at 100 µg/disc (Proteus vulgaris [15]) [mm],zone of inhibition at 100 µg/disc (Salmonella typhi [16]) [mm],zone of inhibition at 100 µg/disc (Klebsiella pneumoniae [17]) [mm],zone of inhibition at 100 µg/disc (Pseudomonas aeruginosa [18]) [mm],zone of inhibition at 100 µg/disc (Escherichia coli [19]) [mm],MIC (Bacillus subtilis [20]) [µg/mL],also measured
Cc1cc(=O)oc2cc(Oc3nc(Nc4ccc(N5C(=O)CSC5c5ccc(Cl)cc5Cl)cc4)nc(N(C)C)n3)ccc12 (stereo not given),50,50,100,50,16,19,17,14,100,50,100,50,50,17,18,16,19,16,17,50,MIC (Staphylococcus aureus [21]): 50 µg/mL; zone of inhibition at 100 µg/disc (Bacillus subtilis [22]): 19 mm; zone of inhibition at 100 µg/disc (Staphylococcus aureus [23]): 17 mm; MIC (Aspergillus fumigatus [24]): 50 µg/mL
COc1ccc(/C=N/c2ccc(Nc3nc(Oc4ccc5c(C)cc(=O)oc5c4)nc(N(C)C)n3)cc2)cc1,100,50,50,100,17,11,13,16,50,100,50,100,100,10,16,18,14,12,10,100,MIC (Staphylococcus aureus [21]): 100 µg/mL; zone of inhibition at 100 µg/disc (Bacillus subtilis [22]): 13 mm; zone of inhibition at 100 µg/disc (Staphylococcus aureus [23]): 15 mm; MIC (Aspergillus fumigatus [24]): 100 µg/mL
Cc1cc(=O)oc2cc(Oc3nc(Nc4ccc(N5C(=O)C(CN6CCN(c7ccccn7)CC6)SC5c5cccc(F)c5)cc4)nc(N(C)C)n3)ccc12 (stereo not given),12.5,50,25,50,21,25,19,23,12.5,12.5,12.5,25,6.25,25,21,23,20,21,28,12.5,MIC (Staphylococcus aureus [21]): 25 µg/mL; zone of inhibition at 100 µg/disc (Bacillus subtilis [22]): 21 mm; zone of inhibition at 100 µg/disc (Staphylococcus aureus [23]): 19 mm; MIC (Aspergillus fumigatus [24]): 25 µg/mL
Cc1cc(=O)oc2cc(Oc3nc(Nc4ccc(N5C(=O)C(CN6CCN(c7ccccn7)CC6)SC5c5ccccc5C(=O)O)cc4)nc(N(C)C)n3)ccc12 (stereo not given),100,100,100,100,< 10,15,13,15,100,100,100,50,100,17,15,11,15,18,13,50,MIC (Staphylococcus aureus [21]): 50 µg/mL; zone of inhibition at 100 µg/disc (Bacillus subtilis [22]): 17 mm; zone of inhibition at 100 µg/disc (Staphylococcus aureus [23]): 19 mm; MIC (Aspergillus fumigatus [24]): 100 µg/mL
Cc1cc(=O)oc2cc(Oc3nc(Nc4ccc(N5C(=O)C(CN6CCN(c7ccccn7)CC6)SC5c5ccc(F)cc5)cc4)nc(N(C)C)n3)ccc12 (stereo not given),25,12.5,50,50,27,26,21,29,6.25,6.25,6.25,6.25,25,21,22,19,18,26,20,12.5,MIC (Staphylococcus aureus [21]): 6.25 µg/mL; zone of inhibition at 100 µg/disc (Bacillus subtilis [22]): 23 mm; zone of inhibition at 100 µg/disc (Staphylococcus aureus [23]): 28 mm; MIC (Aspergillus fumigatus [24]): 12.5 µg/mL
Cc1cc(=O)oc2cc(Oc3nc(Nc4ccc(N5C(=O)C(CN6CCN(c7ccccn7)CC6)SC5c5ccc(Cl)cc5)cc4)nc(N(C)C)n3)ccc12 (stereo not given),6.25,12.5,12.5,25,26,25,21,18,6.25,12.5,50,50,50,27,25,24,22,18,23,50,MIC (Staphylococcus aureus [21]): 25 µg/mL; zone of inhibition at 100 µg/disc (Bacillus subtilis [22]): 18 mm; zone of inhibition at 100 µg/disc (Staphylococcus aureus [23]): 21 mm; MIC (Aspergillus fumigatus [24]): 12.5 µg/mL
Cc1cc(=O)oc2cc(Oc3nc(Nc4ccc(/N=C/c5ccc(Cl)cc5)cc4)nc(N(C)C)n3)ccc12,25,50,25,100,18,18,16,12,50,50,100,100,100,21,17,19,15,11,16,100,MIC (Staphylococcus aureus [21]): 50 µg/mL; zone of inhibition at 100 µg/disc (Bacillus subtilis [22]): 14 mm; zone of inhibition at 100 µg/disc (Staphylococcus aureus [23]): 17 mm; MIC (Aspergillus fumigatus [24]): 50 µg/mL
Cc1cc(=O)oc2cc(Oc3nc(Nc4ccc(N5C(=O)C(CN6CCN(c7ccccn7)CC6)SC5c5ccc([N+](=O)[O-])cc5)cc4)nc(N(C)C)n3)ccc12 (stereo not given),100,100,50,100,13,20,18,15,100,50,100,100,100,14,10,18,15,13,16,100,MIC (Staphylococcus aureus [21]): 100 µg/mL; zone of inhibition at 100 µg/disc (Bacillus subtilis [22]): 13 mm; zone of inhibition at 100 µg/disc (Staphylococcus aureus [23]): 16 mm; MIC (Aspergillus fumigatus [24]): 50 µg/mL
Cc1ccc(C2SC(CN3CCN(c4ccccn4)CC3)C(=O)N2c2ccc(Nc3nc(Oc4ccc5c(C)cc(=O)oc5c4)nc(N(C)C)n3)cc2)cc1 (stereo not given),25,50,25,50,24,22,20,23,12.5,25,12.5,50,50,22,18,21,19,22,18,12.5,MIC (Staphylococcus aureus [21]): 25 µg/mL; zone of inhibition at 100 µg/disc (Bacillus subtilis [22]): 22 mm; zone of inhibition at 100 µg/disc (Staphylococcus aureus [23]): 20 mm; MIC (Aspergillus fumigatus [24]): 25 µg/mL
Cc1cc(=O)oc2cc(Oc3nc(Nc4ccc(/N=C/c5ccc(Cl)cc5Cl)cc4)nc(N(C)C)n3)ccc12,100,50,100,50,12,17,13,11,100,50,100,100,100,14,16,14,17,12,13,50,MIC (Staphylococcus aureus [21]): 100 µg/mL; zone of inhibition at 100 µg/disc (Bacillus subtilis [22]): 17 mm; zone of inhibition at 100 µg/disc (Staphylococcus aureus [23]): 14 mm; MIC (Aspergillus fumigatus [24]): 100 µg/mL
